Read-outs that look alike come from different tables or passages of the source.
Tests used:
[1] = tested on: Puccinia triticina; synonym: Puccinia recondita f. sp. tritici; test: Fungicide mobility (dropline mobility test): wheat brown rust (PUCCRT); type: in vivo; settings: 1 ug/leaf
Experimental: Evaluation of Fungicide Mobility: Wheat Brown Rust (Puccinia triticina; Synonym: Puccinia recondita f. sp. tritici; Bayer Code PUCCRT) “Yuma” wheat seedlings were used in the test. One mg of compound was dissolved in 9 μl of EC blank (emulsifiable concentrate) and 500 μl of acetone. Acetone was then evaporated overnight by leaving the vial open in a fume hood. Two milliliters of water containing 110 ppm Triton X-100 was added to each vial to prepare application solutions. A 2 μl drop of formulated material was applied to a marked line on the adaxial surface 5 cm from the leaf tip of the primary leaves. The primary leaves were kept in a horizontal position. Each treatment had 6 replicates. Plants were inoculated with PUCCRT 1-day after (1DPM) or 3-day prior to (3DCM) compound applications. When rust was fully expressed on primary leaves on control plants, the zone of treated leaves that was disease-free in the acropetal direction was measured with a ruler and converted to percent of the distance from marked line to leaf tip.

[2] = tested on: Mycosphaerella graminicola; anamorph: Septoria tritici; test: Fungicidal activity: leaf blotch of wheat (SEPTTR), wheat seedlings; type: in vivo; settings: Zymoseptoria tritici
Method in brief: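 Percent control derives from disease severity on treated versus untreated first leaves, rated 0–100% when symptoms were fully expressed on untreated plants. Yuma seedlings were inoculated with S. tritici spores either before or after spraying to run-off. The spray was acetone solution diluted 1:9 in water with 110 ppm Triton X-100. Infection took place in 100% RH dew chambers, then a 20 °C greenhouse.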

[3] = tested on: Puccinia triticina; synonym: Puccinia recondita f. sp. tritici; test: Fungicidal activity: wheat brown rust (PUCCRT), wheat seedlings; type: in vivo
Method in brief: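 Wheat (Yuma) seedlings at first-leaf stage, inoculated with Puccinia triticina spores before or after treatment, held overnight in dark dew room at 22° C, 100% RH, then greenhouse at 24° C. Acetone solutions diluted with nine volumes water containing 110 ppm Triton X-100, sprayed to run-off. Percent disease control derived from severity (0–100%) relative to untreated plants.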

[4] = 24 h, 1 Day Protectant Mobility, read-out: Dropline Mobility Test PUCCRT 1DPM
[5] = 72 h, 3 Day Curative Mobility, read-out: Dropline Mobility Test PUCCRT 3DCM
[6] = 24 h, 100 ppm, 1 Day Protectant, wheat, read-out: Disease Control SEPTTR 1DP
[7] = 72 h, 100 ppm, 3 Day Curative, wheat, read-out: Disease Control SEPTTR 3DC
[8] = 24 h, 100 ppm, 1 Day Protectant, wheat, read-out: Disease Control PUCCRT 1DP
[9] = 72 h, 100 ppm, 3 Day Curative, wheat, read-out: Disease Control PUCCRT 3DC
[10] = 24 h, read-out: Disease Control SEPTTR 1DP
[11] = 72 h, read-out: Disease Control SEPTTR 3DC
[12] = 24 h, read-out: Disease Control PUCCRT 1DP
[13] = 72 h, read-out: Disease Control PUCCRT 3DC

COc1ccnc(C(=O)N[C@H]2COC[C@H](OCC(C)C)[C@@H](OCC(C)C)[C@H](C)OC2=O)c1O [Compound 1, N-((3S,7S,8S,9S)-7,8-diisobutoxy-9-methyl-2-oxo-1,5-dioxonan-3-yl)-3-hydroxy-4-methoxypicolinamide]
pest or weed control at 1 µg/leaf [1, 4]: 80 to 100%
pest or weed control at 1 µg/leaf [1, 5]: 80 to 100%
melting point: 111 to 113 °C
pest or weed control at 100 ppm [2, 6]: 80 to 100%
pest or weed control at 100 ppm [2, 7]: 80 to 100%
pest or weed control at 100 ppm [3, 8]: 80 to 100%
pest or weed control at 100 ppm [3, 9]: 80 to 100%

COc1ccnc(C(=O)N[C@@H]2COC[C@H](OCC(C)C)[C@@H](OCC(C)C)COC2=O)c1O [Compound 10]
melting point: 92 to 97 °C
pest or weed control at 100 ppm [2, 6]: 0 to 80%
pest or weed control at 100 ppm [2, 7]: 0 to 80%
pest or weed control at 100 ppm [3, 8]: 0 to 80%
pest or weed control at 100 ppm [3, 9]: 0 to 80%

COc1ccnc(C(=O)N[C@H]2COC[C@H](OCc3ccccc3)[C@@H](OCc3ccccc3)[C@H](C)OC2=O)c1O [Compound 11, N-((3S,7S,8S,9S)-7,8-bis(benzyloxy)-9-methyl-2-oxo-1,5-dioxonan-3-yl)-3-hydroxy-4-methoxypicolinamide]
pest or weed control at 1 µg/leaf [1, 4]: 0 to 80%
pest or weed control at 1 µg/leaf [1, 5]: 0 to 80%
melting point: 144 to 146 °C
pest or weed control at 100 ppm [2, 6]: 80 to 100%
pest or weed control at 100 ppm [2, 7]: 0 to 80%
pest or weed control at 100 ppm [3, 8]: 80 to 100%
pest or weed control at 100 ppm [3, 9]: 80 to 100%

COc1ccnc(C(=O)N[C@H]2COC[C@H](OCC(C)C)[C@@H](OCC(C)C)COC2=O)c1OCOC(C)=O [Compound 13]
melting point: 58 to 64 °C
pest or weed control at 100 ppm [2, 6]: 80 to 100%
pest or weed control at 100 ppm [3, 8]: 80 to 100%
pest or weed control at 100 ppm [3, 9]: 80 to 100%

CC[C@@H]1OC(=O)[C@@H](NC(=O)c2nccc(OC)c2O)COC[C@H](OCC(C)C)[C@H]1OCC(C)C [Compound 21, N-((3S,7S,8S,9S)-9-ethyl-7,8-diisobutoxy-2-oxo-1,5-dioxonan-3-yl)-3-hydroxy-4-methoxypicolinamide]
melting point: 119 to 121 °C
pest or weed control at 100 ppm [2, 6]: 80 to 100%
pest or weed control at 100 ppm [2, 7]: 0 to 80%
pest or weed control at 100 ppm [3, 8]: 80 to 100%
pest or weed control at 100 ppm [3, 9]: 80 to 100%

CCCCO[C@H]1[C@H](C)OC(=O)[C@@H](NC(=O)c2nccc(OC)c2O)COC[C@@H]1OCc1ccccc1 [Compound 32, N-((3S,7S,8S,9S)-7-(benzyloxy)-8-butoxy-9-methyl-2-oxo-1,5-dioxonan-3-yl)-3-hydroxy-4-methoxypicolinamide]
melting point: 105 to 107 °C
pest or weed control at 100 ppm [2, 6]: 80 to 100%
pest or weed control at 100 ppm [2, 7]: 0 to 80%
pest or weed control at 100 ppm [3, 8]: 80 to 100%
pest or weed control at 100 ppm [3, 9]: 80 to 100%

CCCCO[C@H]1COC[C@H](NC(=O)c2nccc(OC)c2O)C(=O)O[C@@H](C)[C@@H]1OCc1ccccc1 [Compound 33, N-((3S,7S,8S,9S)-8-(benzyloxy)-7-butoxy-9-methyl-2-oxo-1,5-dioxonan-3-yl)-3-hydroxy-4-methoxypicolinamide]
melting point: 117 to 119 °C
pest or weed control at 100 ppm [2, 10]: 80 to 100%
pest or weed control at 100 ppm [2, 11]: 0 to 80%
pest or weed control at 100 ppm [3, 12]: 80 to 100%
pest or weed control at 100 ppm [3, 13]: 80 to 100%

CCCCO[C@H]1COC[C@H](NC(=O)c2nccc(OC)c2O)C(=O)O[C@@H](C)[C@@H]1OC [Compound 36, N-((3S,7S,8S,9S)-7-butoxy-8-methoxy-9-methyl-2-oxo-1,5-dioxonan-3-yl)-3-hydroxy-4-methoxypicolinamide]
melting point: 118 to 120 °C
pest or weed control at 100 ppm [2, 6]: 0 to 80%
pest or weed control at 100 ppm [2, 7]: 0 to 80%
pest or weed control at 100 ppm [3, 8]: 80 to 100%
pest or weed control at 100 ppm [3, 9]: 80 to 100%

C=CCO[C@H]1[C@H](C)OC(=O)[C@@H](NC(=O)c2nccc(OC)c2O)COC[C@@H]1OCCCC [Compound 43, N-((3S,7S,8S,9S)-8-(allyloxy)-7-butoxy-9-methyl-2-oxo-1,5-dioxonan-3-yl)-3-hydroxy-4-methoxypicolinamide]
melting point: 101 to 103 °C
pest or weed control at 100 ppm [2, 6]: 80 to 100%
pest or weed control at 100 ppm [2, 7]: 0 to 80%
pest or weed control at 100 ppm [3, 8]: 80 to 100%
pest or weed control at 100 ppm [3, 9]: 80 to 100%

CCCCO[C@H]1COC[C@H](NC(=O)c2nccc(OC)c2O)C(=O)O[C@@H](C)[C@@H]1OCCC [Compound 44, N-((3S,7S,8S,9S)-7-butoxy-9-methyl-2-oxo-8-propoxy-1,5-dioxonan-3-yl)-3-hydroxy-4-methoxypicolinamide]
melting point: 110 to 112 °C
pest or weed control at 100 ppm [2, 6]: 80 to 100%
pest or weed control at 100 ppm [2, 7]: 80 to 100%
pest or weed control at 100 ppm [3, 8]: 80 to 100%
pest or weed control at 100 ppm [3, 9]: 80 to 100%

CCCCO[C@H]1COC[C@H](NC(=O)c2nccc(OC)c2O)C(=O)O[C@@H](C)[C@@H]1OCC(C)C [Compound 48, N-((3S,7S,8S,9S)-7-butoxy-8-isobutoxy-9-methyl-2-oxo-1,5-dioxonan-3-yl)-3-hydroxy-4-methoxypicolinamide]
melting point: 104 to 106 °C
pest or weed control at 100 ppm [2, 6]: 80 to 100%
pest or weed control at 100 ppm [2, 7]: 80 to 100%
pest or weed control at 100 ppm [3, 8]: 80 to 100%
pest or weed control at 100 ppm [3, 9]: 80 to 100%

CCCCO[C@H]1COC[C@H](NC(=O)c2nccc(OC)c2O)C(=O)O[C@@H](C)[C@@H]1OCCOC [Compound 52, N-((3S,7S,8S,9S)-7-butoxy-8-(2-methoxyethoxy)-9-methyl-2-oxo-1,5-dioxonan-3-yl)-3-hydroxy-4-methoxypicolinamide]
melting point: 75 to 77 °C
pest or weed control at 100 ppm [2, 10]: 0 to 80%
pest or weed control at 100 ppm [2, 11]: 0 to 80%
pest or weed control at 100 ppm [3, 13]: 80 to 100%

CCCCO[C@H]1COC[C@H](NC(=O)c2nccc(OC)c2O)C(=O)O[C@@H](C)[C@@H]1OCC(F)F [Compound 53, N-((3S,7S,8S,9S)-7-butoxy-8-(2,2-difluoroethoxy)-9-methyl-2-oxo-1,5-dioxonan-3-yl)-3-hydroxy-4-methoxypicolinamide]
melting point: 127 to 129 °C
pest or weed control at 100 ppm [2, 10]: 0 to 80%
pest or weed control at 100 ppm [2, 11]: 0 to 80%
pest or weed control at 100 ppm [3, 12]: 80 to 100%
pest or weed control at 100 ppm [3, 13]: 80 to 100%

COc1ccnc(C(=O)N[C@H]2COC[C@H](OC(=O)C(C)C)[C@@H](OC(=O)C(C)C)[C@H](C)OC2=O)c1O [Compound 56, (3S,7S,8S,9S)-3-(3-hydroxy-4-methoxypicolinamido)-9-methyl-2-oxo-1,5-dioxonane-7,8-diyl bis(2-methylpropanoate)]
melting point: 111 to 113 °C
pest or weed control at 100 ppm [2, 10]: 0 to 80%
pest or weed control at 100 ppm [2, 11]: 80 to 100%
pest or weed control at 100 ppm [3, 12]: 80 to 100%
pest or weed control at 100 ppm [3, 13]: 80 to 100%

COc1ccnc(C(=O)N[C@H]2COC[C@H](OC)[C@@H](OC)[C@H](C)OC2=O)c1O [Compound 63, N-((3S,7S,8S,9S)-7,8-dimethoxy-9-methyl-2-oxo-1,5-dioxonan-3-yl)-3-hydroxy-4-methoxypicolinamide]
pest or weed control at 1 µg/leaf [1, 4]: 0 to 80%
melting point: 165 to 167 °C
pest or weed control at 100 ppm [2, 7]: 0 to 80%

CCC(C)(C)O[C@H]1COC[C@H](NC(=O)c2nccc(OC)c2O)C(=O)O[C@@H](C)[C@@H]1OCC(C)C [Compound 71, 3-hydroxy-N-((3S,7S,8S,9S)-8-isobutoxy-9-methyl-2-oxo-7-(tert-pentyloxy)-1,5-dioxonan-3-yl)-4-methoxypicolinamide]
melting point: 138 to 140 °C
pest or weed control at 100 ppm [2, 6]: 80 to 100%
pest or weed control at 100 ppm [2, 7]: 0 to 80%
pest or weed control at 100 ppm [3, 8]: 80 to 100%
pest or weed control at 100 ppm [3, 9]: 0 to 80%

CCCCO[C@H]1COC[C@H](NC(=O)c2nccc(OC)c2O)C(=O)O[C@@H](C)[C@@H]1OCC(C)(C)Cl [Compound 87, N-((3S,7S,8S,9S)-7-butoxy-8-(2-chloro-2-methylpropoxy)-9-methyl-2-oxo-1,5-dioxonan-3-yl)-3-hydroxy-4-methoxypicolinamide]
pest or weed control at 1 µg/leaf [1, 4]: 0 to 80%
pest or weed control at 1 µg/leaf [1, 5]: 80 to 100%
melting point: 115 to 117 °C

COc1ccnc(C(=O)N[C@H]2COC[C@H](OCC3CC3)[C@@H](OCC3CC3)[C@H](C)OC2=O)c1O [Compound 209]
melting point: 114 to 117 °C
pest or weed control at 100 ppm [2, 7]: 0 to 80%
pest or weed control at 100 ppm [3, 8]: 0 to 80%
pest or weed control at 100 ppm [3, 9]: 0 to 80%

COc1ccnc(C(=O)N[C@H]2COC[C@H](OCC3CC3)[C@@H](OCC3CC3)[C@H](C)OC2=O)c1OC(C)=O [Compound 232]
melting point: 54 to 60 °C
pest or weed control at 100 ppm [2, 6]: 80 to 100%
pest or weed control at 100 ppm [2, 7]: 0 to 80%
pest or weed control at 100 ppm [3, 8]: 80 to 100%
pest or weed control at 100 ppm [3, 9]: 80 to 100%

From patent US9144239B2, “Macrocyclic picolinamides as fungicides” (DOW AGROSCIENCES LLC, priority 2012, dated 2015)
